From PubChem BioAssay AID1963968 (Molecular Pharmacology Branch, DTP, NCI, 2024)

System: 945468-187-T-J3-PDC spheroids with HUVEC/MSC, viability
Test: Anticancer human tumor 945468-187-T-J3-PDC patient-derived rectal carcinoma cell line growth inhibition [PI3K]
Conditions: for IC50: curve of first compound; for viability, T/C: stronger effect = lower value
Method in brief: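 Targeted small molecules plus PI3K inhibitors, half-log dose series from Cmax (default top 10 microM), were applied to heterotypic spheroids of cancer cells with HUVEC and MSCs. Viability indicated growth inhibition.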

[1] = second compound 0.0316 µM, first compound 0.0316 µM
[2] = second compound 0.0316 µM, first compound 0.1 µM
[3] = second compound 0.0316 µM, first compound 0.316 µM
[4] = second compound 0.0316 µM, first compound 1 µM
[5] = second compound 0.0316 µM, first compound 3.16 µM
[6] = second compound 0.0316 µM, first compound 10 µM
[7] = second compound 0.1 µM, first compound 0.0316 µM
[8] = second compound 0.1 µM, first compound 0.1 µM
[9] = second compound 0.1 µM, first compound 0.316 µM
[10] = second compound 0.1 µM, first compound 1 µM
[11] = second compound 0.1 µM, first compound 3.16 µM
[12] = second compound 0.1 µM, first compound 10 µM
[13] = second compound 0.316 µM, first compound 0.0316 µM
[14] = second compound 0.316 µM, first compound 0.1 µM
[15] = second compound 0.316 µM, first compound 0.316 µM
[16] = second compound 0.316 µM, first compound 1 µM
[17] = second compound 0.316 µM, first compound 3.16 µM
[18] = second compound 0.316 µM, first compound 10 µM
[19] = second compound 1 µM, first compound 0.0316 µM
[20] = second compound 1 µM, first compound 0.1 µM
[21] = second compound 1 µM, first compound 0.316 µM
[22] = second compound 1 µM, first compound 1 µM
[23] = second compound 1 µM, first compound 3.16 µM
[24] = second compound 1 µM, first compound 10 µM
[25] = second compound 3.16 µM, first compound 0.0316 µM
[26] = second compound 3.16 µM, first compound 0.1 µM
[27] = second compound 3.16 µM, first compound 0.316 µM
[28] = second compound 3.16 µM, first compound 1 µM
[29] = second compound 3.16 µM, first compound 3.16 µM
[30] = second compound 3.16 µM, first compound 10 µM
[31] = second compound 10 µM, first compound 0.0316 µM
[32] = second compound 10 µM, first compound 0.1 µM
[33] = second compound 10 µM, first compound 0.316 µM
[34] = second compound 10 µM, first compound 1 µM
[35] = second compound 10 µM, first compound 3.16 µM
[36] = second compound 10 µM, first compound 10 µM
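Further: spheroids exposed to agents for 7 days before viability read.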
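Wherever viability, T/C is given: 100% = DMSO vehicle control viability.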

Cn1ncc(Cl)c1-c1cc(C(=O)NC(CN)Cc2cccc(F)c2)sc1Cl (centres undefined) + Cc1nc(NC(=O)N2CCCC2C(N)=O)sc1-c1ccnc(C(C)(C)C(F)(F)F)c1
IC50 (second compound 0.0316 µM): 4060 nM | IC50 (second compound 0.1 µM): 2930 nM | IC50 (second compound 0.316 µM): 1950 nM | IC50 (second compound 1 µM): 1430 nM | IC50 (second compound 3.16 µM): 605 nM | IC50 (second compound 10 µM): 131 nM | viability, T/C [1]: 86.1% | viability, T/C [2]: 106% | viability, T/C [3]: 96.3% | viability, T/C [4]: 83% | viability, T/C [5]: 54.6% | viability, T/C [6]: 35.1% | viability, T/C [7]: 110% | viability, T/C [8]: 97.2% | viability, T/C [9]: 93.5% | viability, T/C [10]: 60.1% | viability, T/C [11]: 53.7% | viability, T/C [12]: 34.1% | viability, T/C [13]: 114% | viability, T/C [14]: 119% | viability, T/C [15]: 94% | viability, T/C [16]: 61.8% | viability, T/C [17]: 44.6% | viability, T/C [18]: 29.7% | viability, T/C [19]: 109% | viability, T/C [20]: 108% | viability, T/C [21]: 82.4% | viability, T/C [22]: 54% | viability, T/C [23]: 39.8% | viability, T/C [24]: 21.1% | viability, T/C [25]: 107% | viability, T/C [26]: 84% | viability, T/C [27]: 53.2% | viability, T/C [28]: 45% | viability, T/C [29]: 32.7% | viability, T/C [30]: 16.4% | viability, T/C [31]: 60.6% | viability, T/C [32]: 52.2% | viability, T/C [33]: 40% | viability, T/C [34]: 31.9% | viability, T/C [35]: 28.4% | viability, T/C [36]: 4.34%

Cn1nccc1Nc1nccc(-c2ccn(C(CO)c3ccc(Cl)c(F)c3)c(=O)c2)n1 (centres undefined) + Cc1nc(NC(=O)N2CCCC2C(N)=O)sc1-c1ccnc(C(C)(C)C(F)(F)F)c1
IC50 (second compound 0.0316 µM): > 10000 nM | IC50 (second compound 0.1 µM): > 10000 nM | IC50 (second compound 0.316 µM): > 10000 nM | IC50 (second compound 1 µM): > 10000 nM | IC50 (second compound 3.16 µM): > 10000 nM | IC50 (second compound 10 µM): > 10000 nM | viability, T/C [1]: 89.1% | viability, T/C [2]: 111% | viability, T/C [3]: 106% | viability, T/C [4]: 119% | viability, T/C [5]: 135% | viability, T/C [6]: 133% | viability, T/C [7]: 107% | viability, T/C [8]: 109% | viability, T/C [9]: 110% | viability, T/C [10]: 116% | viability, T/C [11]: 125% | viability, T/C [12]: 118% | viability, T/C [13]: 106% | viability, T/C [14]: 114% | viability, T/C [15]: 104% | viability, T/C [16]: 117% | viability, T/C [17]: 129% | viability, T/C [18]: 138% | viability, T/C [19]: 113% | viability, T/C [20]: 112% | viability, T/C [21]: 111% | viability, T/C [22]: 119% | viability, T/C [23]: 144% | viability, T/C [24]: 136% | viability, T/C [25]: 104% | viability, T/C [26]: 101% | viability, T/C [27]: 96.6% | viability, T/C [28]: 121% | viability, T/C [29]: 91.2% | viability, T/C [30]: 90.1% | viability, T/C [31]: 59.8% | viability, T/C [32]: 61.7% | viability, T/C [33]: 61% | viability, T/C [34]: 54.8% | viability, T/C [35]: 52.9% | viability, T/C [36]: 52.9%
